Where two headings read alike, the source gives them in different places.
What was measured:
[1] = tested on: M9 ENL cells
Description: (§1) Carbamate and carbonate derivatives of MMB were also screened for activity against M9 ENL cells at concentrations of 5, 10 and 20 μM (FIG. 10). […] Additionally, succinic amide derivatives of MMB were screened for activity against M9 ENL cells at concentrations of 5, 10 and 20 μM (FIG. 11).
(§2) Ester and amide derivatives of melampomagnolide B were screened for anti-leukemic activity against M9ENL AML cell lines (FIG. 12; FIG. 14; FIG. 15; FIG. 16). For each compound, in vitro cell culture studies were performed in which a range of concentrations (0.25-20 μM) was tested for cytotoxicity against leukemia cell lines, primary leukemia specimens and normal bone marrow controls.

[2] = tested on: AML 052308 cells
Description: (§3) For each compound, in vitro cell culture studies were performed in which a range of concentrations (0.25-20 μM) was tested for cytotoxicity against leukemia cell lines, primary leukemia specimens and normal bone marrow controls.

[3] = tested on: AML 052308 cells; experiment: Antileukemic activity against AML 052308 cells in culture; conditions: for Fold more potent than parthenolide: AML 052308 cells
Description: as §3

[4] = tested on: M9 ENL cells; experiment: cells; conditions: 24 h
Description: as §1, §2

[5] = tested on: cord blood cells; experiment: Toxicity against cord blood cells; format: cell-based
[6] = tested on: AML 100510 primary isolate; experiment: Antileukemic activity against AML 100510 primary isolate
Description: as §3

[7] = tested on: AML 123009 primary isolate; experiment: Antileukemic activity against AML 123009 primary isolate
Description: as §3

| SMILES | EC50 ([1]; M9ENL AML cell lines, 24 hours of drug exposure) [nM] | Fold more cytotoxic than MMB [2] | Fold more potent than parthenolide [3] | EC50 ([3]; AML 052308 cells in culture) [nM] | EC50 [3] [nM] | EC50 [4] [nM] | Antileukemic activity compared to MMB ([1]; M9 ENL cell line) | EC50 [5] [nM] | Antileukemic activity compared to MMB [6] | Antileukemic activity compared to MMB [7] |
| --- | --- | --- | --- | --- | --- | --- | --- | --- | --- | --- |
| C=C1C(=O)O[C@H]2[C@H]1CC/C(COC(=O)Cc1c[nH]c3ccccc13)=C\CC[C@@]1(C)O[C@@H]21 [BS-2-32] | 4000 | around 7 fold | around 3 fold | 4000 | – | – | – | – | – | – |
| C=C1C(=O)O[C@H]2[C@H]1CC/C(COC(=O)c1ccc3cc[nH]c3c1)=C\CC[C@@]1(C)O[C@@H]21 [BS-2-05] | – | around 7 fold | around 3 fold | – | 2500 | 2500 | – | – | – | – |
| C=C1C(=O)O[C@H]2[C@H]1CC/C(COC(=O)/C=C/c1c[nH]c3ccccc13)=C\CC[C@@]1(C)O[C@@H]21 [BS-2-04] | – | about 22 fold | 10 fold | 720 | – | – | good anti-leukemic activity compared to parent compound MMB | 750 | good anti-leukemic activity compared to parent compound MMB | good anti-leukemic activity compared to parent compound MMB |

Source: patent US9920063B2, “Melampomagnolide B derivatives” (Board of Trustees of the University of Arkansas, priority 2013, dated 2018)
